Experiment [1] concerns the target T1, RXRα Homodimer (Homo sapiens, UniProt P19793).
T1 construct: expressed in transfected cells; host or cells: mammalian cells (BHK21, CV1, etc)
T1 sequence (P19793 1-462): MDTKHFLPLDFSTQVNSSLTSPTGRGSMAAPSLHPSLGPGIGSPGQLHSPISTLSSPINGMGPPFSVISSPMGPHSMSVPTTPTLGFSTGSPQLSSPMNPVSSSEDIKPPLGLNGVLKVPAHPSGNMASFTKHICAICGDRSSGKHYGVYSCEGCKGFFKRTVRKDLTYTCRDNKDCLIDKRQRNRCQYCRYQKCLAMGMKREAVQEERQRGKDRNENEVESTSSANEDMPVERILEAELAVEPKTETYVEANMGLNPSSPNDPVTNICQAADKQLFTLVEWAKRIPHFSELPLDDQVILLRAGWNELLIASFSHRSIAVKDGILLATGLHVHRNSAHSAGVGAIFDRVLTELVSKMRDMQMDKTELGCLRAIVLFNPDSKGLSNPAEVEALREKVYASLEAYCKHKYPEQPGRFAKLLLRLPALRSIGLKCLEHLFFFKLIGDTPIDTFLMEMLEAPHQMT
In words: RXRα homodimer activation (transactivation) assay. In kind it is cell-based. The text has this: Nuclear hormone receptor (NHR) ligand dependent transcriptional transactivation assay.
This secondary in vitro functional assay to characterize hits from the primary ligand binding screens is a GAL4-LBD transactivation assay. The Gal4-LBD protein consists of an in frame fusion of the transcription factor galactose 4 DNA binding domain from S.cerevisiae with the ligand binding domain (LBD) of a particular NHR. Briefly, a plasmid construct expressing the recombinant chimeric receptor is co-transfected into mammalian cells (BHK21, CV1, etc) with a luciferase reporter plasmid containing several copies in tandem of the GAL4 binding sites (promoter recognition elements) upstream from the minimal promoter driving the luciferase gene. The transfected cells are treated with compounds for 12-24 hours, lysates are produced and assayed for luciferase activity and normalized to internal standards such as GH, growth hormone or SEAP, secreted alkaline phosphatase. Ligand binding stabilizes the LBD conformation that recruits endogenous co-factors that mediate eventually the increased transcriptional activity of the luciferase reporter gene. By comparing the activation profile of a reference ligand or a natural ligand, the EC50 values for agonistic activity of a particular ligand can be measured. The extent of activation that can be measured is indicative of a partial, respectively full agonistic activity of a ligand. […]

For experiment [2], the target named is T2, RARα (Homo sapiens, UniProt P10276).
T2 sequence (P10276 183-417 limits assumed): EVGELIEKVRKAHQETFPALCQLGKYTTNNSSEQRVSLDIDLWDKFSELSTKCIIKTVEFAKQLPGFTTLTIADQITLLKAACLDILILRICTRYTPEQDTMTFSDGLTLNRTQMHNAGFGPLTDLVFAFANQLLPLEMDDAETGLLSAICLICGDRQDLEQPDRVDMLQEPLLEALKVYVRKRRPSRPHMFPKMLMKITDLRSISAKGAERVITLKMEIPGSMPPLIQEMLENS
Briefly: Retinoid binding assay, RARα. On the set-up: The DEF domains of RAR's and the full length RXR's, expressed in E.coli; made in house; host or cells: E. coli. As to conditions: read-out: Binding Affinity IC50 RAR α. The text has this: (§1) The DEF domains of RAR's and the full length RXR's, expressed in E.coli, are used to measure competitive retinoid binding. […] 9-cis retinoic acid (for RXR's), respectively. […] Separation of bound from free radioactivity is achieved by charcoal/dextran (RAR's) or by desalting columns (RXR's). […] Retinoid Activation Assays

Experiment [3] has as its target T3, RXRα (Homo sapiens, UniProt P19793).
T3 sequence (P19793 1-462): T1 sequence (P19793 1-462)
Briefly: Retinoid binding assay, RXRα. On the set-up: made in house; host or cells: E. coli. The following applies: [3H] 9-cis retinoic acid 20 nM; read-out: Binding Affinity IC50 RXR α.
From the text: as §1

The target of experiment [4] is T4, RARγ (Homo sapiens, UniProt P13631).
T4 sequence (P13631 185-454 limits assumed): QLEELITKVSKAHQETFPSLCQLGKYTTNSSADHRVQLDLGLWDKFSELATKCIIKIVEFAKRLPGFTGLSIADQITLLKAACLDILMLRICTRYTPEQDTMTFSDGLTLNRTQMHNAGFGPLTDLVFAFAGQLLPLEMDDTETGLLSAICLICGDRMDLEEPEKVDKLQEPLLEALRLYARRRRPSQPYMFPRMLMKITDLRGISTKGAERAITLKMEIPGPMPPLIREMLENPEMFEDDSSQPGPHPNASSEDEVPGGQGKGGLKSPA
Briefly: Retinoid activation assay, RARγ (COS-1 cells, SeAP reporter). In kind it is cell-based. The following applies: read-out: Activation EC50 RAR γ. How it is done: (§2) Chimeric RAR cDNAs are used for transfection which contain the DNA binding region of the estrogen receptor. As reporter system, the SeAp (secreted alkaline phosphatase) gene under control of the vitellogenin estrogen response element fused to the herpes simplex thymidinkinase promoter (vit-TK-SeAP) is used. The galactosidase expression vector pCH110 serves to correct for variation in transfection efficiency. […] At the end of the incubation, the cell supernatants are assayed for SeAP activity. Results are given as EC50 (nM), the concentration leading to half-maximal activation.

Experiment [5] deals with T5, RARβ (Homo sapiens, UniProt P10826).
T5 sequence (P10826 183-417 limits assumed): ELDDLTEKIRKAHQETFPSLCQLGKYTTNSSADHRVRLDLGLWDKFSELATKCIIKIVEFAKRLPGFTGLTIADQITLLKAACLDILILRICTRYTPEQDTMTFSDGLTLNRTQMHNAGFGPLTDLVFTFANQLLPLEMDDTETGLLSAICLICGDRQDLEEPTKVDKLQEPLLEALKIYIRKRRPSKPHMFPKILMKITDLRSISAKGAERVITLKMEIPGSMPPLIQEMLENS
In words: Retinoid activation assay, RARβ (COS-1 cells, SeAP reporter). As to conditions: read-out: Activation EC50 RAR β. In kind it is cell-based. As to the method:
as §2

The values that follow come from patent US20080255206A1, “Rxr Agonists and Antagonists, Alone or in Combination with Ppar Ligands, in the Treatment of Metabolic and Cardiovascular Diseases” (priority 2005, published 2008).

Usually EC50 stands for the concentration needed to bring the measured effect to its halfway point. The IC50 is the concentration that inhibits the measured activity by half.

In experiment [1], `CC(/C=C/C1=C(c2ccc3c(c2)C(C)(C)CCC3(C)C)CCCC1)=C\C(=O)O` [Compound 6, (2E,4E)-3-Methyl-5-[2-(5,5,8,8-tetramethyl-5,6,7,8-tetrahydro-naphthalen-2-yl)-cyclohex-1-enyl]-penta-2,4-dienoic acid] had a 50% effective concentration (EC50) of 19 nM. Also, the results for the 50% inhibitory concentration (IC50) in experiment [2] and in experiment [3] were more than 10000 nM and 330 nM, respectively.

As to `CCC1(CC)CCC(C)(C)c2cc(\C(C)=C/C=C/C(C)=C/C(=O)O)ccc21` [Compound 24, (2E,4E,6Z)-7-(5,5-Diethyl-8,8-dimethyl-5,6,7,8-tetrahydro-naphthalen-2-yl)-3-methyl-octa-2,4,6-trienoic acid], the EC50 is 16.1 nM in experiment [4], more than 10000 nM in experiment [1] and 9.9 nM in experiment [5]. Also, the half-inhibitory concentration (IC50) in experiment [2] was 46 nM; in experiment [3], 680 nM.

Compound `CCCCOc1c(\C(C)=C/C=C/C(C)=C/C(=O)O)cc(C(C)(C)C)cc1C(C)(C)C` [Compound 15, (2E,4E,6Z)-7-[2-butoxy-3,5-bis(1,1-dimethylethyl)phenyl]-3-methyl-2,4,6-octatrienoic acid] showed an EC50 in experiment [1] of more than 10000 nM. The IC50 came to 4200 nM in experiment [2] and 30 nM in experiment [3].

Regarding `CC1=C(/C=C/c2sccc2/C=C/C(C)=C/C(=O)O)C(C)(C)CCC1` [Compound 5, (2E,4E)-3-Methyl-5-[2-[(E)-2-(2,6,6-trimethyl-1-cyclohexen-1-yl)ethenyl]-3-thienyl]-2,4-pentadienoic acid], the 50% effective concentration (EC50) in experiment [4] worked out at 170 nM; in experiment [1] it was 0.8 nM; in experiment [5], 85 nM. For the same compound, the IC50 in experiment [2] stood at 1600 nM; in experiment [3] it was 150 nM.

As for `CCCCOc1c([C@@H]2C[C@@H]2/C=C/C(C)=C/C(=O)O)cc(C(C)(C)C)cc1C(C)(C)C` (racemic) [Compound 16, (2E,4E)-(1RS,2RS)-5-[2-(3,5-Di-tert-butyl-2-butoxy-phenyl)-cyclopropyl]-3-methyl-penta-2,4-dienoic acid], the concentration for a half-maximal effect (EC50) in experiment [1] was more than 10000 nM. The IC50 was more than 10000 nM in experiment [2] and 65 nM in experiment [3].

As to `CC1=C(/C=C/C2=C(/C=C/C(C)=C/C(=O)O)CCC2)C(C)(C)CCC1` [Compound 14, (2E,4E)-3-Methyl-5-[2-[(E)-2-(2,6,6-trimethyl-1-cyclohexen-1-yl)ethenyl]-1-cyclopenten-1-yl]-2,4-pentadienoic acid], the concentration for a half-maximal effect (EC50) in experiment [4] worked out at 150 nM; in experiment [1], 6 nM; in experiment [5], 90 nM. In experiment [3], the 50% inhibitory concentration (IC50) turned out to be 110 nM.

Compound `CC1=C(/C=C/C2=C(/C=C/C(C)=C/C(=O)O)CCCCC2)C(C)(C)CCC1` [Compound 1, (2E,4E)-3-methyl-5-[2-[(E)-2-(2,6,6-trimethyl-1-cyclohexen-1-yl)ethenyl]-1-cyclohepten-1-yl]-2,4-pentadienoic acid] showed an EC50 in experiment [1] of 1.4 nM. The 50% inhibitory concentration (IC50) in experiment [2] was more than 10000 nM; in experiment [3], 110 nM.

In experiment [1], `CCOc1c(\C(C)=C/C=C/C(C)=C/C(=O)O)cc(C(C)(C)C)cc1C(C)(C)C` [Compound 21, (2E,4E,6Z)-7-[3,5-Bis(1,1-dimethylethyl)-2-ethoxyphenyl]-3-methyl-2,4,6-octatrienoic acid/ethyl ester] gave an EC50 of more than 10000 nM. The IC50 is more than 10000 nM in experiment [2] and 24 nM in experiment [3].

In experiment [1], `C/C(=C/C=C/C(C)=C/C(=O)O)c1cc2c(cc1C)C(C)(C)CCCC2` [Compound 13, (2E,4E,6Z)-3-Methyl-7-(3,5,5,-trimethyl-6,7,8,9-tetrahydro-5H-benzocyclohepten-2-yl)-octa-2,4,6-trienoic acid] came in with a 50% effective concentration (EC50) of 1.5 nM. The IC50 in experiment [2] came out at 6500 nM; in experiment [3] it was 184 nM.

For the compound `CC(/C=C/[C@@H]1C[C@@H]1c1ccc2c(c1)C(C)(C)CCC2(C)C)=C\C(=O)O` (racemic) [Compound 4, (2E,4E)-3-methyl-5-[(1RS,2RS)-2-(5,5,8,8-tetramethyl-5,6,7,8-tetrahydro-naphthalen-2-yl)-cyclopropyl]-penta-2,4-dienoic acid], the EC50 in experiment [4] amounted to 1000 nM; in experiment [1], 3.5 nM; in experiment [5], 1200 nM. In addition, the IC50 in experiment [2] was more than 10000 nM; in experiment [3], 84 nM.

For `CC(/C=C/c1sccc1-c1ccc2c(c1)C(C)(C)CCC2(C)C)=C\C(=O)O` [Compound 9], the figures for the half-maximal effective concentration (EC50) in experiment [4], in experiment [1] and in experiment [5] were 890 nM, 2.5 nM and 360 nM, respectively. Besides, the half-inhibitory concentration (IC50) was 3400 nM in experiment [2] and 230 nM in experiment [3].

In the case of `CC(/C=C/C1=C(c2ccc3c(c2)C(C)(C)CCC3(C)C)CCC1)=C\C(=O)O` [Compound 12, (2E,4E)-3-Methyl-5-[2-(5,5,8,8-tetramethyl-5,6,7,8-tetrahydro-naphthalen-2-yl)-cyclopent-1-enyl]-penta-2,4-dienoic acid], the half-maximal effective concentration (EC50) in experiment [4] stood at 200 nM; in experiment [1], 9 nM; in experiment [5] it was 84 nM. Moreover, the concentration for half-maximal inhibition (IC50) is 3500 nM in experiment [2] and 80 nM in experiment [3].

`CC(/C=C/c1ccccc1-c1ccc2c(c1)C(C)(C)CCC2(C)C)=C\C(=O)O` [Compound 7, (2E,4E)-3-methyl-5-[2-(5,5,8,8-tetramethyl-5,6,7,8-tetrahydro-naphthalen-2-yl)-phenyl]-penta-2,4-dienoic acid] gave a half-maximal effective concentration (EC50) in experiment [1] of 6 nM. The concentration for half-maximal inhibition (IC50) in experiment [2] was more than 10000 nM; in experiment [3], 780 nM.

Compound `CC1=C(C#CC2=C(/C=C/C(C)=C/C(=O)O)CCCCC2)C(C)(C)CCC1` [Compound 18] displayed an EC50 in experiment [1] of more than 10000 nM. The concentration for half-maximal inhibition (IC50) was more than 10000 nM in experiment [2] and 95 nM in experiment [3].

`CCOc1c([C@@H]2C[C@@H]2/C=C/C(C)=C/C(=O)O)cc(C(C)(C)C)cc1C(C)(C)C` (racemic) [Compound 17, (2E,4E)-(1RS,2RS)-5-[2-(3,5-Di-tert-butyl-2-ethoxy-phenyl)-cyclopropyl]-3-methyl-penta-2,4-dienoic acid] registered a concentration for a half-maximal effect (EC50) in experiment [1] of more than 10000 nM. The figures for the IC50 in experiment [2] and in experiment [3] were more than 10000 nM and 49 nM, respectively.
